Our source for the EC50 values is patent US11472826B2, “Acyclic antivirals” (priority 2016, dated 2022).

Test [1] deals with VSV-G pseudotyped HIV NL4-3. The test is described as follows: microbe, parasite or virus in culture. In kind it is cell-based. Particulars: Human immunodeficiency virus 1, NL43, 72 h.
Test [2] relates to HBV. The test is described as follows: microbe, parasite or virus in culture. In kind it is cell-based. The settings on record: Hepatitis B virus; HepG2.117 cells, 72 hours, HBV viral copy numbers in supernatant; read-out: EC50.

A value given as a limit tells only on which side of the number the result lay.

For `CC(Cc1ccc2c(N)nc(N)nn12)OCP(=O)(O)O` (stereo not drawn) [Compound 9, (((1-(2,4-diaminopyrrolo[2,1-f][1,2,4]triazin-7-yl)propan-2-yl)oxy)methyl) phosphonic Acid], the EC50 in test [1] is less than 20 µM; in test [2] it was 1 to 10 µM.
In the same order, the values of `Nc1ncnc2c(CC(CF)OCP(=O)(O)O)cnn12` (stereo not drawn) [Compound 10, (1-(4-aminopyrazolo[1,5-a][1,3,5]triazin-8-yl)-3-fluoropropan-2-yloxy)methylphosphonic Acid] are less than 20 µM and 1 to 10 µM.
In the same order, the values of `CC(C)OC(=O)OCOP(=O)(CO[C@H](C)Cc1ccc2c(N)ncnn12)OCOC(=O)OC(C)C` [Compound 11] are less than 20 µM and less than 1 µM.
In the same order, the values of `CC(C)OC(=O)OCOP(=O)(CO[C@H](C)Cc1cnc2c(N)ncnn12)OCOC(=O)OC(C)C` [Compound 12] are less than 20 µM and less than 1 µM.
On to `CC(C)OC(=O)OCOP(=O)(CO[C@H](C)Cc1cnn2c(N)ncnc12)OCOC(=O)OC(C)C` [Compound 13], for which the EC50 in test [1] is less than 20 µM; in test [2], more than 100 µM.
On the same counts, the results for `CC(C)OC(=O)OCOP(=O)(CO[C@@H](C)Cc1cnn2c(N)ncnc12)OCOC(=O)OC(C)C` [Compound 14] are less than 20 µM and less than 1 µM.
